Experiment in all cases: NCI anticancer screen, dose series, 48 h
For test [1], the system named is NCI-H23.
The subject of test [2] is SR.
The subject of test [3] is K562.
For test [4], the system named is 786-0.
The test system of test [5] is PC-3.
The test system of test [6] is HCT-15.
The subject of test [7] is DU-145.
Test [8] deals with SF-539.
For test [9], the system named is CCRF-CEM.
The test system of test [10] is CAKI-1.
The test system of test [11] is OVCAR-5.
In test [12] the test system is EKVX.
The subject of test [13] is IGROV-1.
For test [14], the system named is OVCAR-4.
For test [15], the system named is HCC 2998.
In test [16] the test system is SK-MEL-2.
The subject of test [17] is OVCAR-3.
For test [18], the system named is RXF 393.
The subject of test [19] is NCI-H226.

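1) Cells in 96-well plates. 2) Compound, 48 h, 5 concentrations. 3) Linear interpolation between surrounding doses. 4) Unreached endpoint = highest concentration. GI50: concentration for 50% inhibition of growth.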 Calls of active or inactive are those of the source. Rule as the data show it: active = GI50 up to about 1.1 µM and inactive = higher. Bounds are passed on as bounds.

Turning to `CCC(Cc1cnc2nc(N)nc(N)c2n1)c1ccc(C(=O)NC(CCC(=O)O)C(=O)O)cc1` (stereo unspecified), the GI50 was 0.000621 µM (active) in test [1]; 0.01 µM (active) in [2]; < 0.0001 µM (active) in test [3]; 0.000146 µM (active) in test [4]; < 0.0001 µM (active) in test [5]; 0.000632 µM in test [6]. In addition, the GI50 in test [7] was 0.000548 µM (active); in test [8], 0.01 µM (active); in [9], < 0.0001 µM (active); in test [10], 0.01 µM (active); in test [11], 0.01 µM (active); in test [12], 0.000249 µM (active).

Turning to `O=C(Nc1cc(C(F)(F)F)ccc1Cl)C(=O)C(C(=O)c1ccc2ccccc2c1)C1OC(=O)c2ccccc21` (stereo unspecified), the GI50 in test [13] was 23.3 µM (inactive); in [1], 5.26 µM (inactive); in test [2], 2.62 µM (inactive); in test [3], 4.66 µM (inactive); in test [14], 18 µM (inactive); in test [4], 5.26 µM (inactive). Further, the GI50 in [15] is 10.1 µM (inactive); in test [6] it was 6.32 µM; in test [8], 2.08 µM (inactive); in [9], 4.11 µM (inactive); in [10] it was 7.21 µM (inactive); in test [16] it was 12.6 µM (inactive). For the same compound, the GI50 in [11] is 8.95 µM (inactive); in test [12], 13.5 µM (inactive); in [17] it was 13.9 µM (inactive); in [18] it was 1.2 µM (inactive); in [19], 0.881 µM (active).

For `CCc1cccc(CC)c1NC(=O)CC1SC(N)=NC1=O` (stereo unspecified), the GI50 is > 100 µM (inactive) in test [13]; > 100 µM (inactive) in [1]; 97.5 µM (inactive) in test [2]; > 100 µM (inactive) in [3]; > 100 µM (inactive) in test [14]; > 100 µM (inactive) in test [4]. Also, the GI50 in [15] is > 100 µM (inactive); in [6], above 100 µM; in test [8], > 100 µM (inactive); in [9], > 100 µM (inactive); in [16], > 100 µM (inactive); in [11] it was > 100 µM (inactive). Also, the GI50 in test [12], in test [17], in [18] and in [19] was > 100 µM (inactive) each time.

For `COC1CC(OS(=O)(=O)c2ccc(C)cc2)C(OC(=O)c2ccccc2)C(C)O1` (stereo unspecified), the GI50 in test [13], in [1], in [2], in test [3], in test [14] and in test [4] was > 10 µM (inactive) throughout. Further, the GI50 in [15] was > 10 µM (inactive); in test [6], above 10 µM; in [8], > 10 µM (inactive); in test [9], > 10 µM (inactive); in test [10], > 10 µM (inactive); in test [16], > 10 µM (inactive). Moreover, the GI50 in test [11] is > 10 µM (inactive); in [12], > 10 µM (inactive); in test [17], > 10 µM (inactive); in test [18], 88.5 µM (inactive); in test [19], > 10 µM (inactive).

As to `O=C(NCCS(=O)(=O)N1C(=O)C2CCCN2C(=O)[C@@H]1Cc1ccccc1)OCc1ccccc1` (stereo partly specified), the GI50 in [13] was 72.6 µM (inactive); in test [1], 67.6 µM (inactive); in test [2], 57.1 µM (inactive); in test [3], 47.9 µM (inactive); in test [14], 36.7 µM (inactive); in test [4], 78.9 µM (inactive). The GI50 in test [15] was 24 µM (inactive); in [6] it was 51.8 µM; in test [8], 76.6 µM (inactive); in test [9] it was 45.4 µM (inactive); in test [10], > 100 µM (inactive); in test [11], 70.3 µM (inactive). Besides, the GI50 in [12] was 40.9 µM (inactive); in [17], 33.5 µM (inactive); in test [18], 38 µM (inactive); in test [19] it was 51.8 µM (inactive).

As to `CC(C)(C)C1(O)Cc2ccccc2C(=O)O1` (stereo unspecified), the GI50 in test [13], in test [1], in test [2], in test [3], in test [14] and in [4] was > 100 µM (inactive) each time. Besides, the GI50 in test [15] was > 100 µM (inactive); in test [6], above 100 µM; in test [8] it was > 100 µM (inactive); in test [9], > 100 µM (inactive); in test [10], > 100 µM (inactive); in test [16], > 100 µM (inactive). For the same compound, the GI50 in test [11], in [12], in test [17], in test [18] and in test [19] was > 100 µM (inactive) throughout.

As for `Brc1ccc(-c2ccc(-c3ccc(Br)s3)s2)s1`, the GI50 in test [13], in test [1], in [2], in test [3], in test [14] and in test [4] was > 100 µM (inactive) each time. The GI50 was > 100 µM (inactive) in test [5]; > 100 µM (inactive) in [15]; above 100 µM in test [6]; > 100 µM (inactive) in [7]; > 100 µM (inactive) in test [8]; > 100 µM (inactive) in [9]. In addition, the GI50 in test [16], in [11], in test [12], in test [17], in test [18] and in test [19] was > 100 µM (inactive) each time.

Consider `CC(C)N(C(=O)C12C3C4C1C1C2C3C41C#N)C(C)C` (stereo unspecified), for which the GI50 in test [13] is > 100 µM (inactive); in test [1], > 100 µM (inactive); in test [2], 20.2 µM (inactive); in test [3], > 69.2 µM (inactive); in [14] it was > 100 µM (inactive); in test [4], > 100 µM (inactive). The GI50 in test [15] was > 100 µM (inactive); in [6], above 72.8 µM; in test [8], > 100 µM (inactive); in test [9] it was > 50 µM (inactive); in [10] it was > 100 µM (inactive); in test [16], > 100 µM (inactive). Moreover, the GI50 in test [11], in [12], in test [17], in [18] and in [19] was > 100 µM (inactive) in each case.

In the case of `CC1(C)CCc2cc3c(cc2O1)OCC1c2cc4c(cc2OC31)OCO4` (stereo unspecified), the GI50 in [13] was > 100 µM (inactive); in [1], > 100 µM (inactive); in test [2], > 100 µM (inactive); in [3], 71.1 µM (inactive); in [14], > 100 µM (inactive); in test [4] it was > 100 µM (inactive). In addition, the GI50 in test [15] is > 100 µM (inactive); in test [6], 63 µM; in test [8] it was > 100 µM (inactive); in [9], > 100 µM (inactive); in test [10], > 100 µM (inactive); in test [11] it was > 100 µM (inactive). Also, the GI50 in test [12], in test [17], in [18] and in test [19] was > 100 µM (inactive) in each case.

As to `C=CC(=O)NC(=N)NC#N`, the GI50 is 181 µM (inactive) in [13]; 188 µM (inactive) in test [1]; 150 µM (inactive) in test [2]; 35.9 µM (inactive) in test [3]; 168 µM (inactive) in test [14]; 163 µM (inactive) in test [4]. Also, the GI50 was 182 µM (inactive) in [15]; 120 µM in [6]; 164 µM (inactive) in [8]; 22.6 µM (inactive) in [9]; 69 µM (inactive) in [10]; > 100 µM (inactive) in test [16]. The GI50 was 177 µM (inactive) in test [11]; > 100 µM (inactive) in [12]; 169 µM (inactive) in test [17]; > 73.5 µM (inactive) in [18]; 200 µM (inactive) in test [19].

For `O=C(CCl)N1CCN(c2ccccc2)CC1`, the GI50 is 24.1 µM (inactive) in test [13]; 18.1 µM (inactive) in [1]; 26.7 µM (inactive) in test [2]; 36.4 µM (inactive) in [3]; 17.2 µM (inactive) in [14]; 15.9 µM (inactive) in test [4]. The GI50 in [5] was 40.9 µM (inactive); in test [15], 17.6 µM (inactive); in test [6] it was 20.1 µM; in test [7], > 100 µM (inactive); in [9], 26.7 µM (inactive); in test [10], 15.8 µM (inactive). For the same compound, the values for the GI50 in test [11], in [12] and in test [18] were 20.6 µM (inactive), 24.5 µM (inactive) and 19.1 µM (inactive), respectively.

For `CN(C)C=C1C(=O)c2c(Br)sc(Br)c2C1=O`, the GI50 was 18.7 µM (inactive) in test [13]; 15.1 µM (inactive) in [1]; 22.1 µM (inactive) in [3]; 13.8 µM (inactive) in test [14]; 33.9 µM (inactive) in test [4]; 20.7 µM (inactive) in test [5]. The GI50 in test [15] was 13 µM (inactive); in test [6] it was 18.1 µM; in test [7], 28.5 µM (inactive); in test [8], 18.2 µM (inactive); in test [9], 30.4 µM (inactive); in [10], 18.1 µM (inactive). Besides, the GI50 is 14.1 µM (inactive) in test [16]; 28.1 µM (inactive) in test [11]; 18.9 µM (inactive) in [12]; 19.1 µM (inactive) in test [17]; 17.5 µM (inactive) in test [18]; 16.3 µM (inactive) in test [19].

The values are drawn from ChEMBL document CHEMBL1201862, “PubChem BioAssay data set” (2004).
